Assay results from patent US20130011845A1, “MICRORNA REGULATING THE INSULIN SIGNALING PATHWAY, AND METHOD FOR SCREENING MATERIAL FOR CONTROLLING THE ACTION OF A TARGET THEREOF” (SNU R & DB Foundation, priority 2009, published 2013).
d = 2'-deoxy (DNA); r = 2'-OH (RNA)

Key:
FOG2 3′UTR = test: dual-luciferase 3′UTR reporter assay, pAC-FOG2; format: cell-based; settings: luciferase reporter with FOG2 3′UTR, human Hela cell lines; average of at least two independent experiments
Procedure: (§1) In order to determine whether the target genes identified in Example 7 are in actuality targets of miR-8 and miR-200 family miRNAs, the inventors performed cloning. In other words, […] containing the miRNA target sites. Specifically, in order to obtain cDNAs of respective target genes, from drosophila S2 cell lines or human Hela cell lines, total RNA was extracted by using RNeasy mini kit (QIAGEN, US). 1 μg of total RNA and 1 μl of Oligo-dT (Invitrogen, US) were charged with up to 50 μl of distilled water, and placed into SuperScript First-Strand Synthesis System (Invitrogen, US), followed by RT-PCR reaction. Through the reaction at 65° C. for 6 min, at 4° C. for 5 min, at 42° C. for 60 min, at 95° C. for 5 min, and at 4° C. for 5 min, cDNA was synthesized. By using the cDNA (3˜5 μg) as template, and using a primer pair on respective genes noted in Table 3 and PCR Mastermix (Promega, US), PCR was performed on 3′UTR of ush, Lap1, CG8445, dbo, Lar, Ced-12, CG12333, cbt, FOG2, SEPT7, RIN2, SHC1, HOXB5, LF11, TCF7L1, ERBB21P, ELMO2, BAP1, WDR37, KLHL20, PTPRD, RASSF2 and VAC14 from among the target genes selected in Example 7. Herein, PCRP on atro as a drosophila control gene was also performed. After the reaction was completed, the PCR product on each gene's 3′UTR region was cleaved by each of the following restriction enzymes:
(§2) Then, it was cloned into pAC5.1 luciferase vector (a kind gift of Elisa Izaurralde) cleaved by the same restriction enzymes so as to produce a reporter plasmid having a miR-8 or miR-200 family target sequence in luciferase gene's 3′UTR sequence.
(§3) Reporter plasmids and renilla luciferase expression vectors (Promega, US), as noted in Table 4, and miRNAs of miR-200 family of miR-141, miR-200a (hsa-miR-200a, SEQ ID: 87: 5′-[…]-3′), miR-200b, miR-200c (has-miR-200c, SEQ ID: 88: 5′-[…]-3′) and miR-429, and miR-8 (dme-miR-8, SEQ ID: 89: 5′-[…]-3′) were bought from Samchonri and cotransfected into drosophila S2 cell lines or human Hela cell lines. Then, the activities of luciferase were measured through dual-luciferase assay (Promega, US) by a luminometer (Biorad). Then, 7 gene pairs that respond both to miR-8 and to mir-200 family miRNAs in Drosophila and human cells, respectively were identified (see FIG. 15).

ERBB2IP 3′UTR = test: dual-luciferase 3′UTR reporter assay, pAC-ERBB2IP; format: cell-based; settings: luciferase reporter with ERBB2IP 3′UTR, human Hela cell lines; average of at least two independent experiments
Procedure: as §1, §2, §3

BAP1 3′UTR = test: dual-luciferase 3′UTR reporter assay, pAC-BAP1; format: cell-based; settings: luciferase reporter with BAP1 3′UTR, human Hela cell lines; average of at least two independent experiments
Procedure: as §1, §2, §3

KLHL20 3′UTR = test: dual-luciferase 3′UTR reporter assay, pAC-KLHL20; format: cell-based; settings: luciferase reporter with KLHL20 3′UTR, human Hela cell lines; average of at least two independent experiments
Procedure: as §1, §2, §3

PTPRD 3′UTR = test: dual-luciferase 3′UTR reporter assay, pAC-PTPRD; format: cell-based; settings: luciferase reporter with PTPRD 3′UTR, human Hela cell lines; average of at least two independent experiments
Procedure: as §1, §2, §3

ELMO2 3′UTR = test: dual-luciferase 3′UTR reporter assay, pAC-ELMO2; format: cell-based; settings: luciferase reporter with ELMO2 3′UTR, human Hela cell lines; average of at least two independent experiments
Procedure: as §1, §2, §3

WDR37 3′UTR = test: dual-luciferase 3′UTR reporter assay, pAC-WDR37; format: cell-based; settings: luciferase reporter with WDR37 3′UTR, human Hela cell lines; average of at least two independent experiments
Procedure: as §1, §2, §3

KLF11 3′UTR = test: dual-luciferase 3′UTR reporter assay, pAC-KLF11; format: cell-based; settings: luciferase reporter with KLF11 3′UTR, human Hela cell lines; average of at least two independent experiments
Procedure: as §1, §2, §3

HOXB5 3′UTR = test: dual-luciferase 3′UTR reporter assay, pAC-HOXB5; format: cell-based; settings: luciferase reporter with HOXB5 3′UTR, human Hela cell lines; average of at least two independent experiments
Procedure: as §1, §2, §3

TCF7L1 3′UTR = test: dual-luciferase 3′UTR reporter assay, pAC-TCF7L1; format: cell-based; settings: luciferase reporter with TCF7L1 3′UTR, human Hela cell lines; average of at least two independent experiments
Procedure: as §1, §2, §3

SEPT7 3′UTR = test: dual-luciferase 3′UTR reporter assay, pAC-SEPT7; format: cell-based; settings: luciferase reporter with SEPT7 3′UTR, human Hela cell lines; average of at least two independent experiments
Procedure: as §1, §2, §3

RIN2 3′UTR = test: dual-luciferase 3′UTR reporter assay, pAC-RIN2; format: cell-based; settings: luciferase reporter with RIN2 3′UTR, human Hela cell lines; average of at least two independent experiments
Procedure: as §1, §2, §3

SHC1 3′UTR = test: dual-luciferase 3′UTR reporter assay, pAC-SHC1; format: cell-based; settings: luciferase reporter with SHC1 3′UTR, human Hela cell lines; average of at least two independent experiments
Procedure: as §1, §2, §3

RASSF2 3′UTR = test: dual-luciferase 3′UTR reporter assay, pAC-RASSF2; format: cell-based; settings: luciferase reporter with RASSF2 3′UTR, human Hela cell lines; average of at least two independent experiments
Procedure: as §1, §2, §3

VAC14 3′UTR = test: dual-luciferase 3′UTR reporter assay, pAC-VAC14; format: cell-based; settings: luciferase reporter with VAC14 3′UTR, human Hela cell lines; average of at least two independent experiments
Procedure: as §1, §2, §3

FOXO [1] = test: FOXO luciferase reporter (pFK1tk-luc) assay in Hep3B cells; format: cell-based, human
Excerpt: The inventors analyzed the effect of miR-200 miRNAs on the downstream transducers of Akt (see FIGS. 44 to 47). Because Akt represses FOXO activity, the inventors used a luciferase reporter plasmid (pFK1tk-luc) (Biggs, W H et al., 1999, Proc Natl Acad Sci USA 96, 7421-7426) containing eight FOXO-binding sites to determine the level of FOXO activity in cultured cells. Specifically, Hep3B cells were transfected with synthesized siGFP, miR-141, miR-200a, miR-200b, miR-200c, miR-429 or siFOG2 together with pFK1tk-luc vector, and then luciferase activity was measured in the same manner as described Example 8-2. Also, Hep3B cells were transfected with luciferase, or oligonucleotides having complementary sequence to miR-141, miR-200a, miR-200b, miR-200c or miR-429 together with pFK1tk-luc vector. Then, the luciferase activity was measured in the same manner as described above. Further, Hep3B cell lines were transfected with pCK-flag (empty vector) and pCK-FOG2 produced in Example 16-1, and the luciferase activity was measured in the same manner as described above. […] Further, treating the cells with miR-200 inhibitors elevated FOXO activity (see FIG. 46).

Hep3B cells = test: MTT cellular viability assay; format: cell-based, human; settings: Hep3B cells transfected with 30 nM
Procedure: Because stimulation of PI3K and Akt is known to facilitate cell proliferation and antagonize apoptosis (Pollak, 2008), the inventors measured cellular viability with the MTT (3-(4,5-dimethylthiazol-2-yl)-2,5-diphenyltetrazolium bromide) assay in Hep3B cells. Specifically, Hep3B cells were plated in a 96-well plate, and transfected with 30 nM of synthesized siGFP, miR-141, miR-200a, miR-200b, miR-200c, miR-429 or siFOG2. Then, to the plate, 50 μl of MTT solution (2 mg/ml) (Promega, US) was added per each well, followed by culturing at 37 °C for 1 hour. Then, each well was added with 150 μl of DMSO, and measured by a microplate reader (Bio-rad, US) at a wavelength of 590 nm. Also, Hep3B cells were transfected with 200 nM of luciferase, or 200 nM of oligonucleotides having complementary sequences to miR-141, miR-200a, miR-200b, miR-200c or miR-429, and then were subjected to MTT assay in the same manner as described above.

FOXO [2] = test: FOXO activity in Huh7 cell lines transfected with miR-200 and treated with kinase inhibitors; format: cell-based, human; settings: Huh7 cell lines transfected with miR-141/200a or miR-200b/c/429, inhibitor at 10 μM
Akt = test: western blotting of p-Akt in FAO cell lines; format: cell-based; settings: compared to siGFP
p85α = biological target: T1, p85α (Homo sapiens, UniProt P27986); test: in vitro binding assay with GST-fused recombinant p85α; settings: purified GST-fused recombinant p85α protein
T1 construct: GST (N); made in house; host or cells: E. coli BL21
T1 sequence (P27986 whole entry, the tested form may be a part): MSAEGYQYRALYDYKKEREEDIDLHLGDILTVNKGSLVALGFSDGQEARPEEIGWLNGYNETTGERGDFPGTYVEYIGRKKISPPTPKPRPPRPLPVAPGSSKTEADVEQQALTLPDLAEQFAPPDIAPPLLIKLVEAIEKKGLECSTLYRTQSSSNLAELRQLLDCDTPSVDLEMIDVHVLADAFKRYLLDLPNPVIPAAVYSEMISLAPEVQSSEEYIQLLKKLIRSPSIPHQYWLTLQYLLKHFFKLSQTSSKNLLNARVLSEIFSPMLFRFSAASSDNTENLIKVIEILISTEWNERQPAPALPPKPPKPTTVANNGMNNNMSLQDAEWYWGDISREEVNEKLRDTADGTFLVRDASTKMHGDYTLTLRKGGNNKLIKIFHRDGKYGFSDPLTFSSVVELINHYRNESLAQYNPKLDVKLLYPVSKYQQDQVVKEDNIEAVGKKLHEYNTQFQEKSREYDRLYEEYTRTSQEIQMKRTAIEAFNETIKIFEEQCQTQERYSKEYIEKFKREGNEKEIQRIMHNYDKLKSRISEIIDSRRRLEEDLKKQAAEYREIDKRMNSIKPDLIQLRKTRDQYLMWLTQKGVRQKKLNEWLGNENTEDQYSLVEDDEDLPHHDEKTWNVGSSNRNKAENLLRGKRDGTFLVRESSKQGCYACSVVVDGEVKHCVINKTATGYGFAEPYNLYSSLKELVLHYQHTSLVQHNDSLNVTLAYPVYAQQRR
Excerpt: In order to test whether FOG2 directly binds to p85α, the inventors cleaved PCR product on p85α gene (obtained from Example 20-1) by BamHI and EcoRI, and cloned into pGEX5X-1 vector (GE Healthcare, US) cleaved by the same restriction enzymes so as to produce GST-fused recombinant p85α expression vector. The expression vector was transfected into BL21 (Promega, US) through electroporation, and according to a known method, the […] protein was expressed and purified from bacteria (Studier, F. W. et al., 1986, J. Mol. Biol. 189, 113-130), and was used in the following in vitro binding assay, along with purified GST-fused recombinant p85α protein.

PI3K = biological target: T2, PI3K (Homo sapiens, UniProt P27986); test: in vitro PI3K assay on immunoprecipitated PI3K complex; format: biochemical; settings: recombinant protein added to the immunoprecipitated PI3K complex
T2 construct: endogenous in cells; host or cells: Hep3B cell lysate (method paragraph)
T2 sequence (P27986 whole entry): as the sequence (P27986 whole entry, the tested form may be a part) above

5′-UAAUACUGCCGGGUAAUGAUGGA-3′ [miR-200c]
Represion fold, FOG2 (FOG2 3′UTR): 0.32 fold | Represion fold, ERBB2IP (ERBB2IP 3′UTR): 0.59 fold | Represion fold, BAP1 (BAP1 3′UTR): 0.74 fold | Represion fold, KLHL20 (KLHL20 3′UTR): 0.69 fold | Represion fold, PTPRD (PTPRD 3′UTR): 0.97 fold | Represion fold, ELMO2 (ELMO2 3′UTR): 0.86 fold | Represion fold, WDR37 (WDR37 3′UTR): 1.21 fold | Represion fold, KLF11 (KLF11 3′UTR): 1.07 fold | Represion fold, HOXB5 (HOXB5 3′UTR): 0.87 fold | Represion fold, TCF7L1 (TCF7L1 3′UTR): 0.80 fold | Represion fold, SEPT7 (SEPT7 3′UTR): 1.29 fold | Represion fold, RIN2 (RIN2 3′UTR): 1.30 fold | Represion fold, SHC1 (SHC1 3′UTR): 1.85 fold | Represion fold, RASSF2 (RASSF2 3′UTR): 0.99 fold | Represion fold, VAC14 (VAC14 3′UTR): 1.20 fold | FOXO activity (activity of luciferase, pFK1tk-luc) (FOXO [1]): significantly repressed | cell viability (MTT) (Hep3B cells): increased cell viability

N#CC(=C(/N)Sc1ccccc1N)/C(C#N)=C(\N)Sc1ccccc1N [U0126]
miR-200-mediated FOXO regulation (FOXO activity) (FOXO [2]): did not affect miR-200-mediated FOXO regulation

O=C1c2ccccc2-c2n[nH]c3cccc1c23 [SB600125]
miR-200-mediated FOXO regulation (FOXO activity) (FOXO [2]): did not affect miR-200-mediated FOXO regulation

5′-UUAUUCAAGUCCAUCUUCCdTdT-3′ (UUAUUCAAGUCCAUCUUCCTT; siRNA; sugars from the 5' end r19 d2, backbone not given here) [siFOG2]
p-Akt levels (Akt): increased p-Akt levels | FOXO activity (activity of luciferase, pFK1tk-luc) (FOXO [1]): significantly repressed

B1: recombinant FOG2 protein: recombinant FOG2 protein containing the middle region of FOG2 (413-789 aa), expressed and purified from bacteria (protein, UniProt Q8WW38 413-789, looked up, fragment)
chain: DLLTRSELPQSQKAMQTKDASSDTELDKCEKKTQLFLTNQRPEIQPTTNKQSFSYTKIKSEPSSPRLASSPVQPNIGPSFPVGPFLSQFSFPQDITMVPQASEILAKMSELVHRRLRHGSSSYPPVIYSPLMPKGATCFECNITFNNLDNYLVHKKHYCSSRWQQMAKSPEFPSVSEKMPEALSPNTGQTSINLLNPAAHSADPENPLLQTSCINSSTVLDLIGPNGKGHDKDFSTQTKKLSTSSNNDDKINGKPVDVKNPSVPLVDGESDPNKTTCEACNITFSRHETYMVHKQYYCATRHDPPLKRSASNKVPAMQRTMRTRKRRKMYEMCLPEQEQRPPLVQQRFLDVANLNNPCTSTQEPTEGLGECYHPRCD
binding to recombinant p85α (p85α): specifically bound to recombinant p85α | PI3K activity (PI3K): significantly inhibited the PI3K activity
